Assay results reported in paper PMC10731644, “Toward ^68Ga and ^64Cu Positron Emission Tomography Probes: Is H2dedpa-N,N′-pram the Missing Link for dedpa Conjugation?” (Inorganic Chemistry, 2023).
Read-outs that look alike come from different tables or passages of the source. Marks after values point to notes of the source that are not given here. Each block holds one compound with its values, some of them ahead of it.

Key:
[1] = cited from earlier work
[2] = Complex formation equilibria with Cu(II) (potentiometric–spectrophotometric and in-batch acidic UV titrations); type: physicochemical; settings: literature chelators, no reference given for the value; [L] = 10 μM, [M] = 1 μM, pH = 7.4
Description: Protonation constants and metal stability constants were determined through a multitechnique approach. Combined potentiometric–spectrophotometric titrations were carried out using a Metrohm Titrando 809 equipped with a Ross combined electrode and a Metrohm Dosino 800. The glass cell containing the solutions to be titrated was maintained at a constant temperature, 25 °C, and connected with an inlet–outlet tube for nitrogen gas (purified through a 10% NaOH solution) to exclude CO2 prior to and during the titration. Daily electrode calibrations were carried out at proton ion concentration, and the results were analyzed with the Gran[41] procedure to obtain the standard potential (E°) and the ionic product of water pKw at T = 25 °C and I = 0.16 M NaCl. […] The exact amount of acid present was determined by the titration of equimolar solutions of either Cu(II) or Ga(III) and Na2H2EDTA using Gran plotting.[41]
Complex formation equilibria of either Ga(III) or Cu(II) with H2L^1 were studied using two different methods. […] The pH in the most acidic samples was calculated from the H^+ concentration when the pH was below the electrode threshold. From very acidic pH, both Cu(II) and Ga(III) complexes formed, and the first protonated complex species ([Cu(H3L^1)]^3+ and [Ga(H2L^1)]^3+) were determined through the fitting of these experiments with the HypSpec2014 program[42] […]

[3] = cited from earlier work; for pGa: [L] = 10 μM, [M] = 1 μM, pH = 7.4
[4] = cited from earlier work; remark: listed apart in the source
[5] = Complex formation equilibria with Ga(III) (potentiometric–spectrophotometric and in-batch acidic UV titrations); type: physicochemical; settings: for pGa, corrected value: from corrected log KML, [L] = 10 μM, [M] = 1 μM, pH = 7.4; for log KML (M = Ga^3+), corrected value: refit of potentiometric curve in competition with [Ga(OH)4]−, I = 0.15 M NaCl, 25 °C (Supporting Information)
Description: Protonation constants and metal stability constants were determined through a multitechnique approach. Combined potentiometric–spectrophotometric titrations were carried out using a Metrohm Titrando 809 equipped with a Ross combined electrode and a Metrohm Dosino 800. The glass cell containing the solutions to be titrated was maintained at a constant temperature, 25 °C, and connected with an inlet–outlet tube for nitrogen gas (purified through a 10% NaOH solution) to exclude CO2 prior to and during the titration. […] The calibrations involved HCl standard being titrated with carbonate-free titrant NaOH(aq) (0.15 M), and the ionic strength was maintained constant to 0.16 M by the addition of a NaCl solution. The NaOH was previously standardized against freshly dried potassium hydrogen phthalate crystals. Copper and gallium metal-ion solutions used in metal complexation experiments were prepared by the dilution of AA standards. The exact amount of acid present was determined by the titration of equimolar solutions of either Cu(II) or Ga(III) and Na2H2EDTA using Gran plotting.[41]
Complex formation equilibria of either Ga(III) or Cu(II) with H2L^1 were studied using two different methods. […] The pH in the most acidic samples was calculated from the H^+ concentration when the pH was below the electrode threshold. From very acidic pH, both Cu(II) and Ga(III) complexes formed, and the first protonated complex species ([Cu(H3L^1)]^3+ and [Ga(H2L^1)]^3+) were determined through the fitting of these experiments with the HypSpec2014 program[42] (Figures S50–S52 and S56–S58 and Table S3). […] Dissociation constants corresponding to the hydrolysis of Ga(III) and Cu(II) aqueous ions included in the calculations were taken from Baes and Mesmer.[46] Complexation of H2L^1 with Ga(III) was further corroborated by the findings of ^1H NMR experiments at different pD values (Figures 3 and S26). Similarly, complexation of H2L^2 with Cu(II) or Ga(III) was studied by in-batch acidic UV experiments in a set of solutions prepared with the experimental conditions [H2L^2] = [Ga^3+] = 1 × 10^–4 M; [H2L^2] = [Cu^2+] = 7 × 10^–4 M, and the pH was adjusted by the addition of different amounts of standardized HCl. The ionic strength was maintained constant at 0.16 M when possible by the addition of NaCl. The first-formed complex species ([Cu(HL^2)]^+, [CuL^2], and [GaL^2]^+) were determined through fitting of the experimental data (Figures S53–S55 and S59–S61 and Table S3). […]

[6] = Protonation constants by combined potentiometric–spectrophotometric, in-batch acidic UV and 1H NMR titrations; type: physicochemical; settings: 25 °C, I = 0.16 M NaCl
Description: Protonation constants and metal stability constants were determined through a multitechnique approach. Combined potentiometric–spectrophotometric titrations were carried out using a Metrohm Titrando 809 equipped with a Ross combined electrode and a Metrohm Dosino 800. The glass cell containing the solutions to be titrated was maintained at a constant temperature, 25 °C, and connected with an inlet–outlet tube for nitrogen gas (purified through a 10% NaOH solution) to exclude CO2 prior to and during the titration. Daily electrode calibrations were carried out at proton ion concentration, and the results were analyzed with the Gran[41] procedure to obtain the standard potential (E°) and the ionic product of water pKw at T = 25 °C and I = 0.16 M NaCl. The calibrations involved HCl standard being titrated with carbonate-free titrant NaOH(aq) (0.15 M), and the ionic strength was maintained constant to 0.16 M by the addition of a NaCl solution. The NaOH was previously standardized against freshly dried potassium hydrogen phthalate crystals. Copper and gallium metal-ion solutions used in metal complexation experiments were prepared by the dilution of AA standards. The exact amount of acid present was determined by the titration of equimolar solutions of either Cu(II) or Ga(III) and Na2H2EDTA using Gran plotting.[41]
Protonation equilibria of either H2L^1 or H2L^2 were studied by titrations of solutions containing [H2L^1] = 9.56 × 10^–4 M or [H2L^2] = 5.87 × 10^–4 M at 25 °C and 0.16 M NaCl ionic strength using a potentiometric–spectrophotometric procedure. In each titration (100–150 equilibrium points and pH range 2–11), the electromotive force values were recorded after 2 min of each NaOH addition and the spectrophotometer was synchronized to obtain a UV spectrum for each pH data point. Spectra were recorded in the 200–400 nm wavelength range with a 0.2-cm-path-length optic dip probe connected to a Varian Cary 60 UV–vis spectrophotometer. The obtained spectrophotometric and potentiometric data were analyzed with HypSpec2014([42]) and HyperQuad2013([43]) to obtain the protonation constants and molar absorptivities of the different absorbing species of the ligands (Table 3 and Figures S42–S49 and S51B). […] Additional ^1H NMR titrations were carried out for H2L^1 to better understand the protonation sequence and their assignments (Figures S45 and S46). A set of H2L^1 solutions (4 × 10^–3 M) in D2O were prepared by the addition of DCl or NaOD, and their ^1H NMR spectra were recorded. The pH values of the samples were then measured with a microelectrode (Mettler Toledo), which was calibrated daily at H^+ concentration as described above. The pH was corrected for the deuterium isotopic effect (pD = pHreading + 0.4).[44]

[7] = Table S4 footnote f, ref 8 (SI)
[8] = Table S4 footnote c, ref 5 (SI)
[9] = Table S4 footnote d, ref 6 (SI)
[10] = Table S4 footnote e, ref 7 (SI)

Compound: O=C([O-])CN1CCN(CC(=O)[O-])CCN(CC(=O)[O-])CCN(CC(=O)[O-])CC1.[Ga+3] [Ga^III-DOTA]
pGa [3]: 18.5
log KML (M = Ga^3+) [3]: 21.33

Compound: O=C(O)c1cccc(CNCCNCc2cccc(C(=O)O)n2)n1 [H2dedpa, 1,2-bis[[(6-carboxypyridin-2-yl)methyl]amino]ethane]
log KML (M = Cu^2+) [1]: 19.16(5) ^d
pCu ([1]; −log [Mfree] at [L] = 10 μM, [M] = 1 μM, pH = 7.4): 18.5 ^d
pGa, corrected value [5]: 22.2 ^e
log KML (M = Ga^3+), corrected value [5]: 22.9(1) ^e
log KHqL, H2L + H+ ⇆ H3L [4, 8]: 3.04
log KHqL, H3L + H+ ⇆ H4L [4, 8]: 2.59
log KHqL, HL + H+ ⇆ H2L [4, 8]: 6.31
log KHqL, L + H+ ⇆ HL [4, 8]: 9.00
log KHqL, H2L + H+ ⇆ H3L [4, 9]: 3.08 (2)
log KHqL, H3L + H+ ⇆ H4L [4, 9]: 2.33 (3)
log KHqL, HL + H+ ⇆ H2L [4, 9]: 6.18 (2)
log KHqL, L + H+ ⇆ HL [4, 9]: 8.69 (1)

Compound: O=C([O-])c1cccc(CNCCNCc2cccc(C(=O)[O-])n2)n1.[Ga+3] [[Ga(dedpa)]^+]
log KML (M = Ga^3+) [3]: 28.11(8)
pGa, corrected value [5]: 22.2
log KML (M = Ga^3+), corrected value [5]: 22.9(1)

Compound: N,N′-Bis(3-aminopropyl)-N,N′-bis(6-carboxypyridin-2-yl)-1,2-diaminoethane [H2L^1]
log KHqL, H2L + H+ ⇆ H3L (log K3) [6]: 6.78
log KHqL, H3L + H+ ⇆ H4L (log K4) [6]: 4.23
log KHqL, H4L + H+ ⇆ H5L (log K5) [6]: 2.79
log KHqL, H5L + H+ ⇆ H6L (log K6) [6]: 2.01
log KHqL, HL + H+ ⇆ H2L (log K2) [6]: 9.91
log KHqL, L + H+ ⇆ HL (log K1) [6]: 10.86

Second part, led by results:

pCu [2]: 16.2
Compound: O=C(O)CN1CCN(CC(=O)O)CCN(CC(=O)O)CCN(CC(=O)O)CC1 [DOTA, 1,4,7,10-tetraazacyclododecane-1,4,7,10-tetraacetic acid]
log KML (M = Cu^2+) [1]: 22.21(1) ^f
log KML (M = Ga^3+) [3]: 21.33 ^g
log KHqL, H2L + H+ ⇆ H3L [4, 7]: 4.548 (3)
log KHqL, H3L + H+ ⇆ H4L [4, 7]: 4.130 (3)
log KHqL, HL + H+ ⇆ H2L [4, 7]: 9.680 (1)
log KHqL, L + H+ ⇆ HL [4, 7]: 12.09 (4)
∑log KHqL [4, 7]: 30.448

pCu [2]: 19.2
Compound: O=C(O)CN1CCN(CC(=O)O)CCN(CC(=O)O)CC1 [NOTA, 1,4,7-triazacyclononane-1,4,7-triacetic acid]
log KML (M = Cu^2+) [1]: 21.6 ^d
pGa [3]: 27.9 ^g
log KML (M = Ga^3+) [3]: 30.98 ^g
log KHqL, H2L + H+ ⇆ H3L [4, 10]: 3.163(3)
log KHqL, H3L + H+ ⇆ H4L [4, 10]: 1.955(3)
log KHqL, HL + H+ ⇆ H2L [4, 10]: 6.032(4)
log KHqL, L + H+ ⇆ HL [4, 10]: 10.773(7)
∑log KHqL [4, 10]: 21.923
